Measurements as given in US9920010B2, “CXCR7 receptor modulators” (IDORSIA PHARMACEUTICALS LTD, priority 2013, dated 2018).

Target: T1, CXCR7 (Homo sapiens, UniProt P25106)
T1 construct: host or cells: CHO-K1 (PathHunter CHO-K1 CXCR7 b-arrestin cell line, stably transfected)
Assay: PathHunter CHO-K1 CXCR7 b-arrestin recruitment assay (CXCR7 agonistic activity)
Type: cell-based
Details: PathHunter CHO-K1 CXCR7 b-arrestin cell line
In short: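 Stable CHO-K1 line with C-terminally ProLink-tagged CXCR7 and β-arrestin 2–EA fusion; β-arrestin recruitment restores β-gal activity, read by chemiluminescence after 1 h RT detection. Cells seeded 24 h, starved in OPTIMEM 3–4 h, exposed to compounds 90 min at 37 °C in HBSS/HEPES/BSA. Geometric-mean EC50 from repeated measurements.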

T1 sequence (P25106 whole entry): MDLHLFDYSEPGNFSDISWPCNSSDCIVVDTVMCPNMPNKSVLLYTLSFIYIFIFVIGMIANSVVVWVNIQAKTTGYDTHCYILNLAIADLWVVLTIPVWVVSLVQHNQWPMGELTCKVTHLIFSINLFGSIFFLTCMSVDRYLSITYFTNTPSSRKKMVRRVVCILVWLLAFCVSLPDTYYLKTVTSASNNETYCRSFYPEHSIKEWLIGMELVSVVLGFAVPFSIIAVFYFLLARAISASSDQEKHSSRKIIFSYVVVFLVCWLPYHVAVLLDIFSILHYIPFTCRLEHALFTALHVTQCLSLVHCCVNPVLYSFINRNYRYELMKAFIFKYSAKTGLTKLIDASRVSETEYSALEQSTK
T1 sequence (P32121 whole entry partner): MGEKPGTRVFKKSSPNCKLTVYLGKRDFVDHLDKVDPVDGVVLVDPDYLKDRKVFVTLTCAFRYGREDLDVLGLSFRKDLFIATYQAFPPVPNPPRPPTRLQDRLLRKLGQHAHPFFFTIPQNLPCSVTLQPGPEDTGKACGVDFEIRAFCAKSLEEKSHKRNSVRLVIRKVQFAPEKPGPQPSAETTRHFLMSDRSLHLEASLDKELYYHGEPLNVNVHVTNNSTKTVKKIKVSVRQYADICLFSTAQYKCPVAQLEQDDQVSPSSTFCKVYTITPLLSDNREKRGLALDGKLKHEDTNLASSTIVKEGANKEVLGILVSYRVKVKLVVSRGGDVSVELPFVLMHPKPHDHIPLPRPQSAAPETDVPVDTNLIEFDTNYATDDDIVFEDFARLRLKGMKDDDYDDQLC

| SMILES | EC50 [nM] |
| --- | --- |
| O=C(CNc1cccc2c1CCN(CC1CC1)C2)N(Cc1ccccc1C(F)(F)F)CC(O)C(F)(F)F (racemic) [Example 242, rac-2-(2-Cyclopropylmethyl-1,2,3,4-tetrahydro-isoquinolin-5-ylamino)-N-(3,3,3-trifluoro-2-hydroxy-propyl)-N-(2-trifluoromethyl-benzyl)-acetamide] | 24 |
| O=C(CNc1cccc2c1CCN(CC1CC1)C2)N(Cc1ccccc1)C1CCNC1 (racemic) [Example 178, rac-N-Benzyl-2-(2-cyclopropylmethyl-1,2,3,4-tetrahydro-isoquinolin-5-ylamino)-N-pyrrolidin-3-yl-acetamide] | 25 |
| COCCN1CCc2c(cccc2NCC(=O)N(Cc2ccccc2C(F)(F)F)CC(O)COC)C1 (stereo not drawn) [Example 299, N-(2-Hydroxy-3-methoxy-propyl)-2-[2-(2-methoxy-ethyl)-1,2,3,4-tetrahydro-isoquinolin-5-ylamino]-N-(2-trifluoromethyl-benzyl)-acetamide] | 291 |
| CCN1CCc2cccc(NCC(=O)N(CCN(C)C)Cc3ncccc3C)c2C1 [compound 525, N-(2-Dimethylamino-ethyl)-2-(2-ethyl-1,2,3,4-tetrahydro-isoquinolin-8-ylamino)-N-(3-methyl-pyridin-2-ylmethyl)-acetamide] | 41 |
| CN(C)CCN(Cc1ncccc1C(F)(F)F)C(=O)Cc1cccc2c1CCN(CC1CC1)C2 [Example 5, 2-(2-Cyclopropylmethyl-1,2,3,4-tetrahydro-isoquinolin-5-yl)-N-(2-dimethylamino-ethyl)-N-(3-trifluoromethyl-pyridin-2-ylmethyl)-acetamide] | 187 |
| CNCCN(Cc1ccccc1C(F)(F)F)C(=O)CNc1cccc2c1CCN(C(=O)C1CCC1)C2 [compound 389, 2-(2-Cyclobutanecarbonyl-1,2,3,4-tetrahydro-isoquinolin-5-ylamino)-N-(2-methylamino-ethyl)-N-(2-trifluoromethyl-benzyl)-acetamide] | 20 |
| CN(C)CCN(Cc1ccccc1C(F)(F)F)C(=O)CN(C)c1cccc2c1CCN(CC1CC1)C2 [Example 87, 2-[(2-Cyclopropylmethyl-1,2,3,4-tetrahydro-isoquinolin-5-yl)-methyl-amino]-N-(2-dimethylamino-ethyl)-N-(2-trifluoromethyl-benzyl)-acetamide] | 3 |
| CNCCN(Cc1ncccc1C(F)(F)F)C(=O)CNc1cccc2c1CCN(C(=O)C1CCC1)C2 [compound 414, 2-(2-Cyclobutanecarbonyl-1,2,3,4-tetrahydro-isoquinolin-5-ylamino)-N-(2-methylamino-ethyl)-N-(3-trifluoromethyl-pyridin-2-ylmethyl)-acetamide] | 37 |
| O=C(CNc1cccc2c1CCN(CC1CC1)C2)N(CCN1CCCC1)Cc1ccccc1Cl [Example 43, N-(2-Chloro-benzyl)-2-(2-cyclopropylmethyl-1,2,3,4-tetrahydro-isoquinolin-5-ylamino)-N-(2-pyrrolidin-1-yl-ethyl)-acetamide] | 2 |
| O=C(CNc1cccc2c1CCN(CC1CC1)C2)N(Cc1ccccc1C(F)(F)F)CC1(O)CCCC1 [Example 243, 2-(2-Cyclopropylmethyl-1,2,3,4-tetrahydro-isoquinolin-5-ylamino)-N-(1-hydroxy-cyclopentylmethyl)-N-(2-trifluoromethyl-benzyl)-acetamide] | 8 |
| CCC(=O)N1CCc2c(cccc2NCC(=O)N(CCN(C)C)Cc2ccc(F)cc2)C1 [Example 22, N-(2-Dimethylamino-ethyl)-N-(4-fluoro-benzyl)-2-(2-propionyl-1,2,3,4-tetrahydro-isoquinolin-5-ylamino)-acetamide] | 80 |
| CC(C)CN1CCc2c(cccc2OCC(=O)N(CCN(C)C)Cc2ccccc2)C1 [compound 168, N-Benzyl-N-(2-dimethylamino-ethyl)-2-(2-isobutyl-1,2,3,4-tetrahydro-isoquinolin-5-yloxy)-acetamide] | 20 |
| C#CCN1CCc2c(cccc2NCC(=O)N(CCN(C)C)Cc2ccccc2C(F)(F)F)C1 [Example 308, N-(2-Dimethylamino-ethyl)-2-(2-prop-2-ynyl-1,2,3,4-tetrahydro-isoquinolin-5-ylamino)-N-(2-trifluoromethyl-benzyl)-acetamide] | 28 |
| Cc1cccc(CN(C(=O)CNc2cccc3c2CCN(CC2CC2)C3)C2CC2)c1C [Example 69, N-Cyclopropyl-2-(2-cyclopropylmethyl-1,2,3,4-tetrahydro-isoquinolin-5-ylamino)-N-(2,3-dimethyl-benzyl)-acetamide] | 418 |
| CC(O)CN(Cc1ccccc1C(F)(F)F)C(=O)CNc1cccc2c1CCN(CC1CC1)C2 (racemic) [Example 240, rac-2-(2-Cyclopropylmethyl-1,2,3,4-tetrahydro-isoquinolin-5-ylamino)-N-(2-hydroxy-propyl)-N-(2-trifluoromethyl-benzyl)-acetamide] | 15 |
| CCN1CCc2c(/C=C/C(=O)N(CCN(C)C)Cc3ccccc3Cl)cccc2C1 [compound 145, (E)-N-(2-Chloro-benzyl)-N-(2-dimethylamino-ethyl)-3-(2-ethyl-1,2,3,4-tetrahydro-isoquinolin-5-yl)-acrylamide] | 8 |
| O=C(Cc1cccc2c1CCN(CC1CC1)C2)N(CCN1CCCC1)Cc1ccccc1C(F)(F)F [Example 7, 2-(2-Cyclopropylmethyl-1,2,3,4-tetrahydro-isoquinolin-5-yl)-N-(2-pyrrolidin-1-yl-ethyl)-N-(2-trifluoromethyl-benzyl)-acetamide] | 32 |
| COCCN1CCc2c(/C=C/C(=O)N(CCN(C)C(=O)OC(C)(C)C)Cc3ccccc3C(F)(F)F)cccc2C1 [Example 319, {2-[{(E)-3-[2-(2-Methoxy-ethyl)-1,2,3,4-tetrahydro-isoquinolin-5-yl]-acryloyl}-(2-trifluoromethyl-benzyl)-amino]-ethyl}-methyl-carbamic acid tert-butyl ester] | 443 |
| CC(C)(O)CN(Cc1ccccc1C(F)(F)F)C(=O)CNc1cccc2c1CCN(CC1CC1)C2 [Example 241, 2-(2-Cyclopropylmethyl-1,2,3,4-tetrahydro-isoquinolin-5-ylamino)-N-(2-hydroxy-2-methyl-propyl)-N-(2-trifluoromethyl-benzyl)-acetamide] | 8 |
| C/C(=C\c1cccc2c1CCN(CC1CC1)C2)C(=O)N(CCN(C)C)Cc1ccccc1C(F)(F)F [compound 154, (E)-3-(2-Cyclopropylmethyl-1,2,3,4-tetrahydro-isoquinolin-5-yl)-N-(2-dimethylamino-ethyl)-2-methyl-N-(2-trifluoromethyl-benzyl)-acrylamide] | 29 |
| CCN1CCc2cccc(NCC(=O)N(CCc3ccccc3C)CCN(C)C)c2C1 [compound 537] | 217 |
| CN(C)CCN(Cc1ccccc1C(F)(F)F)C(=O)CNc1cccc2c1CN(C(=O)N1CCCC1)CC2 [compound 561, N-(2-Dimethylamino-ethyl)-2-[2-(pyrrolidine-1-carbonyl)-1,2,3,4-tetrahydro-isoquinolin-8-ylamino]-N-(2-trifluoromethyl-benzyl)-acetamide] | 7 |

Next, values leading:

| EC50 [nM] | SMILES |
| --- | --- |
| 2 | CN(C)CCN(Cc1ccccc1C(F)(F)F)C(=O)CNc1cccc2c1CCN(CC1CC1)C2 [Example 76, 2-(2-Cyclopropylmethyl-1,2,3,4-tetrahydro-isoquinolin-5-ylamino)-N-(2-dimethylamino-ethyl)-N-(2-trifluoromethyl-benzyl)-acetamide] |
| 63 | CCN1CCc2cccc(NCC(=O)N(CCN(C)C)Cc3cccc(C)c3)c2C1 [compound 495] |
| 25 | CN(C)CCN(CCc1ccccc1)C(=O)CNc1cccc2c1CCN(CC1CC1)C2 [Example 36, 2-(2-Cyclopropylmethyl-1,2,3,4-tetrahydro-isoquinolin-5-ylamino)-N-(2-dimethylamino-ethyl)-N-phenethyl-acetamide] |
| 3 | CN(C)CCN(Cc1ccccc1)C(=O)/C=C/c1cccc2c1CCN(CC1CC1)C2 [compound 143, (E)-N-Benzyl-3-(2-cyclopropylmethyl-1,2,3,4-tetrahydro-isoquinolin-5-yl)-N-(2-dimethylamino-ethyl)-acrylamide] |
| 248 | CN(C)CCN(Cc1ccccc1)C(=O)CNc1cccc2c1CN(C)C2 [Example 208, N-Benzyl-N-(2-dimethylamino-ethyl)-2-(2-methyl-2,3-dihydro-1H-isoindol-4-ylamino)-acetamide] |
| 2 | CN(C)CCN(Cc1ccccc1Cl)C(=O)CNc1cccc2c1CCN(CC1CC1)C2 [compound 134, N-(2-Chloro-benzyl)-2-(2-cyclopropylmethyl-1,2,3,4-tetrahydro-isoquinolin-5-ylamino)-N-(2-dimethylamino-ethyl)-acetamide] |
| 449 | CN(C)CCN(Cc1ccccc1)C(=O)CNc1cccc2c1CCN(C(=O)CC1CCCCC1)C2 [compound 129] |
| 51 | CN(C)CCN(Cc1ccccc1)C(=O)CNc1cccc2c1CN(CC1CC1)C2 [Example 209, N-Benzyl-2-(2-cyclopropylmethyl-2,3-dihydro-1H-isoindol-4-ylamino)-N-(2-dimethylamino-ethyl)-acetamide] |
| 1 | CCN(C)CCN(Cc1ccccc1C(F)(F)F)C(=O)CNc1cccc2c1CCN(CC1CC1)C2 [Example 231, 2-(2-Cyclopropylmethyl-1,2,3,4-tetrahydro-isoquinolin-5-ylamino)-N-[2-(ethyl-methyl-amino)-ethyl]-N-(2-trifluoromethyl-benzyl)-acetamide] |
| 70 | CN(C)CCN(CCc1ccc(C(F)(F)F)cc1)C(=O)CNc1cccc2c1CCN(CC1CC1)C2 [Example 56, 2-(2-Cyclopropylmethyl-1,2,3,4-tetrahydro-isoquinolin-5-ylamino)-N-(2-dimethylamino-ethyl)-N-[2-(4-trifluoromethyl-phenyl)-ethyl]-acetamide] |
| 28 | CCN1CCc2cccc(NCC(=O)N(CCN(C)C)Cc3ccccc3C)c2C1 [compound 494, N-(2-Dimethylamino-ethyl)-2-(2-ethyl-1,2,3,4-tetrahydro-isoquinolin-8-ylamino)-N-(2-methyl-benzyl)-acetamide] |
